Values of other authors in US11696905B2, “Ready-to-use tranexamic acid intravenous solution” (Boulevard Patience et Beaujonc Nº3/1, priority 2018, dated 2023).

What was measured:
[1] = oral administration
[2] = four doses of 10-20 mg per kg body weight 36-48 hours before surgery

**Q.** For `NC[C@H]1CC[C@H](C(=O)O)CC1` [Tranexamic acid, trans-4-(aminomethyl)cyclohexanecarboxylic acid], which “absorption from the human gastrointestinal tract” value [1] is on record?
**A.** 40%

**Q.** And the “time antifibrinolytically active concentration remained in the serum” value [2]?
**A.** 7 to 8 h

**Q.** What about the “time antifibrinolytically active concentration remained in the tissues investigated” value [2] of the same compound?
**A.** up to 17 hours

**Q.** What about the antifibrinolytically active concentration (in vivo) of the same compound?
**A.** 10 µg/mL
